From patent US11684614B2, “Formulations of hydroxypyridonate actinide/lanthanide decorporation agents” (priority 2017, dated 2023)

Assay: Repeated-treatment efficacy for removing an intravenous dose of 238Pu (excretion, tissue retention, clinical observations), female and male arms
Assay type: in vivo, Swiss-Webster mice
Details: female mice; for ^238Pu percent tissue reduction, Soft Tissue / ^238Pu percent tissue reduction, Total Body / ^238Pu percent tissue reduction, Total Bone / ^238Pu percent tissue reduction, GI Tract / ^238Pu percent tissue reduction, Kidney / ^238Pu percent tissue reduction, Liver: vs untreated control group; for ^238Pu percent increase in excretion, Total Excretion / ^238Pu percent increase in excretion, Total Feces / ^238Pu percent increase in excretion, Total Urine: over untreated control group
Description: The objective of this study was to characterize the efficacy of 3,4,3-L1(1,2-HOPO) at enhancing elimination from an internal plutonium burden in female and male Swiss-Webster mice administered a soluble citrate complex of ^238Pu and treated multiple times, starting at 24 hours after the exposure. Efficacy was evaluated by comparing the tissue contents, urinary and fecal excretions of ^238Pu in treated animals versus untreated animals.
The medical countermeasure 3,4,3-L1(1,2-HOPO) was administered parenterally (ip) or orally (po) via consecutive injections or gavages (six daily or twelve twice daily) starting at 24 hours post contamination at the following four selected doses: 30 μmol/kg ip, 150 μmol/kg po, 300 μmol/kg po, and 600 μmol/kg po (equivalent to respective approximate human doses range of […], using the accepted conversion system of mouse doses into human equivalent doses—HED—based on body surface area). Oral doses also included the permeability enhancer selected during formulation development work.
• Challenge isotope: ^238Pu • Challenge dose: 25 nCi (i.e., approximately 0.8 μCi/kg) • Route of contamination: Intravenous (iv) tail-vein • Route of treatment: Intraperitoneal Injection (ip) or Oral (po) • Frequency of treatment: Multiple (once- or twice-daily for 6 days) doses, starting 24 hr postcontamination • Treatment dose calculation: Dose calculations (mg/kg or μmol/kg) for the decorporation agent were based on the individual body weight measured after contamination. • Study Duration: 11 days, in-life
c. […] Test article and control dose formulations were prepared within 1 day of dose administration, by weighing out the appropriate amount of test article, dispersing in vehicle. For ip solutions, the test article was used alone, while for oral suspensions, a mixture of test article and excipient (90:10, w:w) was used. The pH was adjusted to 7.0-7.4 for ip administration and 5.0-5.5 for oral administration with sterile NaOH. Dose formulations were prepared at room temperature and filter-sterilized. • Storage: 2-8° C.; refrigerated; protected from light. • Characterization: The concentration of each test article formulation was verified by high-performance liquid chromatography-mass spectrometry. • Test Article Handling: Test, reference, and control article formulations were handled with the use of eye protection, gloves, and a protective laboratory coat. • Correct Dose Assurance: The test article was weighed with calibrated balances. The administration of each dose formulation was properly documented, and the amount administered to each animal recorded.
e. Experimental Procedures (In-Life Evaluations and Euthanasia) • Contamination: Single administration by intravenous (iv) tail-vein injection (0.2 mL injection volume) under isoflurane anesthesia. Three standard 0.2 mL injections were performed into polyethylene bottles and pre-loaded with aliquots of concentrated nitric acid on each injection day. Six female and six male mice were culled for necropsy 1 hr post-contamination and were used as standards. A11 standards were processed and counted together with the final samples to allow verification of the contamination dose. • Dose Administration: Single administration by intraperitoneal injection (ip) or oral gavage (po) under isoflurane anesthesia. • Mortality/Morbidity: Assessed at least once daily. • Clinical Observations: Recorded once daily (4 hr post-dose on day of treatment), or more often as clinical signs warranted. […]

[1] = 300 μmol/kg, 1 doses PO, 7-day necropsy
[2] = 300 μmol/kg, 2 doses PO, 7-day necropsy
[3] = 300 μmol/kg, PO, 11-day necropsy
[4] = 600 μmol/kg, 1 dose PO, 7-day necropsy
[5] = 600 μmol/kg, 1 dose PO, 11-day necropsy
[6] = 600 μmol/kg, PO, 11-day necropsy

## O=C(NCCCN(CCCCN(CCCNC(=O)c1cccc(=O)n1O)C(=O)c1cccc(=O)n1O)C(=O)c1cccc(=O)n1O)c1cccc(=O)n1O [Formulation 343]
[1]
  ^238Pu percent tissue reduction, Soft Tissue: 25.25%
  ^238Pu percent tissue reduction, Total Body: 33.88%
  ^238Pu percent tissue reduction, Total Bone: 33.33%
[2]
  ^238Pu excretion, Total Excretion, Avg: 66.57 percent recovered dose
  ^238Pu excretion, Total Feces, Avg: 35.68 percent recovered dose
  ^238Pu excretion, Total Urine, Avg: 30.90 percent recovered dose
  ^238Pu retention, GI Tract, Avg: 1.25 percent recovered dose
  ^238Pu retention, Kidney, Avg: 0.18 percent recovered dose
  ^238Pu retention, Liver, Avg: 6.85 percent recovered dose
  ^238Pu retention, Soft Tissue, Avg: 1.62 percent recovered dose
  ^238Pu retention, Total Body, Avg: 33.43 percent recovered dose
  ^238Pu retention, Total Bone, Avg: 23.54 percent recovered dose
  ^238Pu percent increase in excretion, Total Excretion: 139.02%
  ^238Pu percent increase in excretion, Total Feces: 157.58%
  ^238Pu percent increase in excretion, Total Urine: 122.37%
  ^238Pu percent tissue reduction, GI Tract: 33.06%
  ^238Pu percent tissue reduction, Kidney: 56.34%
  ^238Pu percent tissue reduction, Liver: 63.39%
  ^238Pu percent tissue reduction, Soft Tissue: 20.76%
  ^238Pu percent tissue reduction, Total Body: 35.85%
  ^238Pu percent tissue reduction, Total Bone: 19.10%
[3]
  ^238Pu excretion, Total Excretion, Avg: 71.89 percent recovered dose
  ^238Pu excretion, Total Feces, Avg: 37.63 percent recovered dose
  ^238Pu excretion, Total Urine, Avg: 34.27 percent recovered dose
  ^238Pu percent increase in excretion, Total Excretion: 140.66%
  ^238Pu percent increase in excretion, Total Feces: 162.86%
  ^238Pu percent increase in excretion, Total Urine: 122.35%
[4]
  ^238Pu excretion, Total Excretion, Avg: 67.37 percent recovered dose
  ^238Pu excretion, Total Feces, Avg: 30.80 percent recovered dose
  ^238Pu excretion, Total Urine, Avg: 36.57 percent recovered dose
  ^238Pu retention, GI Tract, Avg: 1.24 percent recovered dose
  ^238Pu retention, Kidney, Avg: 0.23 percent recovered dose
  ^238Pu retention, Liver, Avg: 12.48 percent recovered dose
  ^238Pu retention, Soft Tissue, Avg: 1.62 percent recovered dose
  ^238Pu retention, Total Body, Avg: 32.63 percent recovered dose
  ^238Pu retention, Total Bone, Avg: 17.06 percent recovered dose
  ^238Pu percent increase in excretion, Total Excretion: 151.63%
  ^238Pu percent increase in excretion, Total Feces: 176.75%
  ^238Pu percent increase in excretion, Total Urine: 135.42%
  ^238Pu percent tissue reduction, GI Tract: 8.30%
  ^238Pu percent tissue reduction, Kidney: 29.85%
  ^238Pu percent tissue reduction, Liver: 24.79%
  ^238Pu percent tissue reduction, Soft Tissue: 30.25%
  ^238Pu percent tissue reduction, Total Body: 41.28%
  ^238Pu percent tissue reduction, Total Bone: 51.23%
[5]
  ^238Pu retention, GI Tract, Avg: 0.83 percent recovered dose
  ^238Pu retention, Kidney, Avg: 0.14 percent recovered dose
  ^238Pu retention, Liver, Avg: 5.60 percent recovered dose
  ^238Pu retention, Soft Tissue, Avg: 2.01 percent recovered dose
  ^238Pu retention, Total Body, Avg: 26.78 percent recovered dose
  ^238Pu retention, Total Bone, Avg: 18.20 percent recovered dose
  ^238Pu percent tissue reduction, GI Tract: 39.39%
  ^238Pu percent tissue reduction, Kidney: 48.77%
  ^238Pu percent tissue reduction, Liver: 58.17%
  ^238Pu percent tissue reduction, Soft Tissue: 24.63%
  ^238Pu percent tissue reduction, Total Body: 45.22%
  ^238Pu percent tissue reduction, Total Bone: 41.64%
[6]
  ^238Pu excretion, Total Excretion, Avg: 73.22 percent recovered dose
  ^238Pu excretion, Total Feces, Avg: 34.70 percent recovered dose
  ^238Pu excretion, Total Urine, Avg: 38.52 percent recovered dose
  ^238Pu percent increase in excretion, Total Excretion: 143.25%
  ^238Pu percent increase in excretion, Total Feces: 150.20%
  ^238Pu percent increase in excretion, Total Urine: 137.53%
